Experimental data published in ChEMBL document CHEMBL1201862, “PubChem BioAssay data set” (2004).
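The compound was tested at five concentrations on cells cultured in 96-well plates, with a 48-hour exposure period. Here, GI50 denotes the concentration required for 50% inhibition of growth.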 The source made the active and inactive calls. Rule as the data show it: active = GI50 up to about 1.1 µM and inactive = higher.

Key:
Assay in all cases: DTP human tumour cell line panel, 48 h
[1] = system: OVCAR-3
[2] = system: BT-549
[3] = system: MDA-N
[4] = system: SK-OV-3
[5] = system: Hs-578T
[6] = system: OVCAR-4
[7] = system: HCT-15
[8] = system: RPMI-8226
[9] = system: 786-0
[10] = system: MCF7
[11] = system: A498
[12] = system: HOP-62
[13] = system: NCI-H226
[14] = system: SN12C
[15] = system: NCI-H23
[16] = system: CAKI-1
[17] = system: UACC-62
[18] = system: UO-31
[19] = system: OVCAR-8
[20] = system: MDA-MB-435
[21] = system: HT-29
[22] = system: RXF 393
[23] = system: A549
[24] = system: SNB-19
[25] = system: SF-539
[26] = system: SF-268
[27] = system: DU-145
[28] = system: KM12
[29] = system: SF-295
[30] = system: T47D
[31] = system: ACHN
[32] = system: UACC-257
[33] = system: U-251
[34] = system: CCRF-CEM
[35] = system: SK-MEL-5
[36] = system: MDA-MB-231
[37] = system: EKVX
[38] = system: HOP-92
[39] = system: HCT-116
[40] = system: OVCAR-5
[41] = system: SR
[42] = system: HCC 2998
[43] = system: PC-3
[44] = system: NCI-H522
[45] = system: SW-620
[46] = system: LOX IMVI
[47] = system: K562
[48] = system: SK-MEL-28
[49] = system: MOLT-4
[50] = system: SK-MEL-2
[51] = system: Malme-3M
[52] = system: NCI-H460
[53] = system: HL-60
[54] = system: COLO 205
[55] = system: TK-10
[56] = system: NCI/ADR-RES
[57] = system: SNB-75
[58] = system: IGROV-1
[59] = system: M14

CC1CC2CCCC(=O)C2=C(O)O1 (centres undefined)
GI50 [1]: > 100 µM (inactive)
GI50 [2]: 81.5 µM (inactive)
GI50 [3]: > 100 µM (inactive)
GI50 [4]: > 100 µM (inactive)
GI50 [5]: > 100 µM (inactive)
GI50 [6]: > 100 µM (inactive)
GI50 [7]: > 100 µM
GI50 [8]: > 100 µM (inactive)
GI50 [9]: > 100 µM (inactive)
GI50 [10]: > 100 µM (inactive)
GI50 [11]: > 100 µM (inactive)
GI50 [12]: > 100 µM (inactive)
GI50 [13]: > 100 µM (inactive)
GI50 [14]: > 100 µM (inactive)
GI50 [15]: > 100 µM (inactive)
GI50 [16]: > 100 µM (inactive)
GI50 [17]: > 100 µM (inactive)
GI50 [18]: > 100 µM (inactive)
GI50 [19]: > 100 µM (inactive)
GI50 [20]: > 100 µM (inactive)
GI50 [21]: > 100 µM (inactive)
GI50 [22]: > 100 µM (inactive)
GI50 [23]: > 100 µM (inactive)
GI50 [24]: 31.6 µM (inactive)
GI50 [25]: > 100 µM (inactive)
GI50 [26]: > 100 µM (inactive)
GI50 [27]: > 100 µM (inactive)
GI50 [28]: > 100 µM (inactive)
GI50 [29]: > 100 µM (inactive)
GI50 [30]: > 100 µM (inactive)
GI50 [31]: > 100 µM (inactive)
GI50 [32]: > 100 µM (inactive)
GI50 [33]: > 100 µM (inactive)
GI50 [34]: > 100 µM (inactive)
GI50 [35]: > 100 µM (inactive)
GI50 [36]: > 100 µM (inactive)
GI50 [37]: 86.7 µM (inactive)
GI50 [38]: > 100 µM (inactive)
GI50 [39]: > 100 µM (inactive)
GI50 [40]: > 100 µM (inactive)
GI50 [41]: > 100 µM (inactive)
GI50 [42]: > 100 µM (inactive)
GI50 [43]: > 100 µM (inactive)
GI50 [44]: > 100 µM (inactive)
GI50 [45]: > 100 µM (inactive)
GI50 [46]: > 100 µM (inactive)
GI50 [47]: > 100 µM (inactive)
GI50 [48]: > 100 µM (inactive)
GI50 [49]: > 100 µM (inactive)
GI50 [50]: > 100 µM (inactive)
GI50 [51]: > 100 µM (inactive)
GI50 [52]: > 100 µM (inactive)
GI50 [53]: > 100 µM (inactive)
GI50 [54]: > 100 µM (inactive)
GI50 [55]: > 100 µM (inactive)
GI50 [56]: > 100 µM (inactive)
GI50 [57]: > 100 µM (inactive)
GI50 [58]: > 100 µM (inactive)
GI50 [59]: > 100 µM (inactive)

C=CCOc1ccccc1/N=N/C(C#N)=N\Nc1ccccc1OCC=C
GI50 [1]: > 100 µM (inactive)
GI50 [2]: > 100 µM (inactive)
GI50 [3]: 27.2 µM (inactive)
GI50 [4]: > 100 µM (inactive)
GI50 [5]: > 100 µM (inactive)
GI50 [6]: > 100 µM (inactive)
GI50 [7]: > 100 µM
GI50 [8]: > 100 µM (inactive)
GI50 [9]: > 100 µM (inactive)
GI50 [10]: > 100 µM (inactive)
GI50 [11]: > 100 µM (inactive)
GI50 [12]: > 100 µM (inactive)
GI50 [13]: > 100 µM (inactive)
GI50 [14]: > 100 µM (inactive)
GI50 [15]: > 100 µM (inactive)
GI50 [16]: > 100 µM (inactive)
GI50 [17]: > 100 µM (inactive)
GI50 [18]: > 100 µM (inactive)
GI50 [19]: > 100 µM (inactive)
GI50 [20]: 41.9 µM (inactive)
GI50 [21]: > 100 µM (inactive)
GI50 [22]: > 100 µM (inactive)
GI50 [23]: > 100 µM (inactive)
GI50 [24]: > 100 µM (inactive)
GI50 [25]: > 100 µM (inactive)
GI50 [26]: > 100 µM (inactive)
GI50 [27]: > 100 µM (inactive)
GI50 [28]: > 100 µM (inactive)
GI50 [29]: > 100 µM (inactive)
GI50 [30]: > 100 µM (inactive)
GI50 [31]: > 100 µM (inactive)
GI50 [32]: > 100 µM (inactive)
GI50 [33]: > 100 µM (inactive)
GI50 [34]: > 100 µM (inactive)
GI50 [35]: > 100 µM (inactive)
GI50 [36]: > 100 µM (inactive)
GI50 [37]: > 100 µM (inactive)
GI50 [38]: 62.1 µM (inactive)
GI50 [39]: > 100 µM (inactive)
GI50 [40]: > 100 µM (inactive)
GI50 [41]: > 100 µM (inactive)
GI50 [42]: 48.1 µM (inactive)
GI50 [43]: > 100 µM (inactive)
GI50 [44]: > 100 µM (inactive)
GI50 [45]: > 100 µM (inactive)
GI50 [46]: > 100 µM (inactive)
GI50 [47]: > 100 µM (inactive)
GI50 [48]: > 100 µM (inactive)
GI50 [49]: > 100 µM (inactive)
GI50 [50]: > 100 µM (inactive)
GI50 [51]: > 100 µM (inactive)
GI50 [52]: > 100 µM (inactive)
GI50 [53]: > 100 µM (inactive)
GI50 [54]: > 100 µM (inactive)
GI50 [55]: > 100 µM (inactive)
GI50 [56]: > 100 µM (inactive)
GI50 [57]: > 100 µM (inactive)
GI50 [58]: > 100 µM (inactive)
GI50 [59]: > 100 µM (inactive)

CCOC(C[Se]CC(OCC)OCC)OCC
GI50 [1]: > 100 µM (inactive)
GI50 [2]: 31.8 µM (inactive)
GI50 [3]: 89.7 µM (inactive)
GI50 [4]: 74.6 µM (inactive)
GI50 [5]: 14.9 µM (inactive)
GI50 [6]: 45.3 µM (inactive)
GI50 [7]: 57.9 µM
GI50 [8]: > 100 µM (inactive)
GI50 [9]: > 100 µM (inactive)
GI50 [10]: 48.3 µM (inactive)
GI50 [11]: > 100 µM (inactive)
GI50 [13]: 21.5 µM (inactive)
GI50 [15]: 34.2 µM (inactive)
GI50 [16]: 59.4 µM (inactive)
GI50 [17]: 28.4 µM (inactive)
GI50 [18]: 38.6 µM (inactive)
GI50 [19]: 27.2 µM (inactive)
GI50 [20]: 36.4 µM (inactive)
GI50 [21]: 64.9 µM (inactive)
GI50 [22]: 28.4 µM (inactive)
GI50 [23]: 75.5 µM (inactive)
GI50 [24]: 48.8 µM (inactive)
GI50 [25]: 28.7 µM (inactive)
GI50 [27]: 37.5 µM (inactive)
GI50 [28]: 53.2 µM (inactive)
GI50 [29]: 26.1 µM (inactive)
GI50 [30]: > 100 µM (inactive)
GI50 [31]: > 100 µM (inactive)
GI50 [32]: 85.1 µM (inactive)
GI50 [33]: 14.6 µM (inactive)
GI50 [34]: 33.4 µM (inactive)
GI50 [35]: 15.7 µM (inactive)
GI50 [36]: 52.5 µM (inactive)
GI50 [37]: > 100 µM (inactive)
GI50 [38]: 39.6 µM (inactive)
GI50 [39]: 32.7 µM (inactive)
GI50 [40]: 96.6 µM (inactive)
GI50 [41]: > 100 µM (inactive)
GI50 [42]: > 100 µM (inactive)
GI50 [43]: 37.9 µM (inactive)
GI50 [44]: > 100 µM (inactive)
GI50 [45]: 85.3 µM (inactive)
GI50 [46]: 22.9 µM (inactive)
GI50 [47]: > 100 µM (inactive)
GI50 [48]: 49.4 µM (inactive)
GI50 [49]: 37.8 µM (inactive)
GI50 [50]: 48.5 µM (inactive)
GI50 [51]: 61.5 µM (inactive)
GI50 [52]: 65.9 µM (inactive)
GI50 [53]: 16.8 µM (inactive)
GI50 [54]: > 100 µM (inactive)
GI50 [55]: 53.6 µM (inactive)
GI50 [56]: 50.9 µM (inactive)
GI50 [57]: 13.2 µM (inactive)
GI50 [58]: 24.1 µM (inactive)
GI50 [59]: 52.8 µM (inactive)
